Results: patent publication US20120316184A1, “NOVEL MICROBICIDES” (SYNGENTA CROP PROTECTION LLC, priority 2010, published 2012)

Experiments:
[1] = test system: Phytophthora infestans; assay type: in vivo; details: 200 ppm; tomato leaf disks, inoculated 1 day after application, assessed 5-7 days after application, vs untreated
[2] = test system: Gaeumannomyces graminis; test: Fungicidal activity against Gaeumannomyces graminis / liquid culture (take-all of cereals); assay type: cell-based; details: liquid culture (PDB), inhibition of growth determined photometrically 4-5 days after application, read-out: disease control
Description: (§1) Fungicidal Activity Against Gaeumannomyces graminis/Liquid Culture (Take-all of Cereals) Mycelial fragments of the fungus from cryogenic storage were directly mixed into nutrient broth (PDB potato dextrose broth). After placing a (DMSO) solution of test compound into a microtiter plate (96-well format), the nutrient broth containing the fungal spores is added. The test plates were incubated at 24° C. and the inhibition of growth was determined photometrically 4-5 days after application.

[3] = test system: Pyrenophora teres; test: Fungicidal activity against Pyrenophora teres / barley / leaf disc preventative (net blotch); assay type: in vivo; details: foliar, barley leaf segments cv. Hasso, inoculated 2 days after application, assessed 5-7 days after application, vs untreated, read-out: disease control
Description: Fungicidal Activity Against Pyrenophora teres/Barley/Leaf Disc Preventative (Net Blotch) Barley leaf segments cv. Hasso were placed on agar in a multiwell plate (24-well format) and sprayed with the formulated test compound diluted in water. The leaf […] inoculated with a spore suspension of the fungus 2 days after application. The inoculated leaf segments were incubated at 20° C. and 65% rh under a light regime of 12 h light/12 h darkness in a climate cabinet and the activity of a compound was assessed as disease control compared to untreated when an appropriate level of disease damage appears in untreated check leaf segments (5-7 days after application).

[4] = test system: Mycosphaerella graminicola (Septoria tritici); test: Fungicidal activity against Mycosphaerella graminicola (Septoria tritici) / liquid culture (Septoria blotch); assay type: cell-based; details: Zymoseptoria tritici, liquid culture (PDB), inhibition of growth determined photometrically 4-5 days after application, read-out: disease control
Description: as §1, with “Mycosphaerella graminicola (Septoria tritici)/Liquid” for “Gaeumannomyces graminis/Liquid”, “(Septoria Blotch) Conidia” for “(Take-all of Cereals) Mycelial fragments”, “was” for “is”

[5] = test system: Botryotinia fuckeliana (Botrytis cinerea); test: Fungicidal activity against Botryotinia fuckeliana (Botrytis cinerea) / liquid culture (gray mould); assay type: cell-based; details: liquid culture (Vogels broth), inhibition of growth determined photometrically 3-4 days after application, read-out: disease control
Description: as §1, with “Botryotinia fuckeliana (Botrytis cinerea)/Liquid” for “Gaeumannomyces graminis/Liquid”, “(Gray Mould) Conidia” for “(Take-all of Cereals) Mycelial fragments”, “(Vogels” for “(PDB potato dextrose”, “was” for “is”, “3-4” for “4-5”

[6] = test system: Glomerella lagenarium (Colletotrichum lagenarium); test: Fungicidal activity against Glomerella lagenarium (Colletotrichum lagenarium) / liquid culture (anthracnose); assay type: cell-based; details: Colletotrichum orbiculare, liquid culture (PDB), inhibition of growth measured photometrically 3-4 days after application, read-out: disease control
Description: as §1, with “Glomerella lagenarium (Colletotrichum lagenarium)/Liquid” for “Gaeumannomyces graminis/Liquid”, “(Anthracnose) Conidia” for “(Take-all of Cereals) Mycelial fragments”, “was” for “is”, “measured” for “determined”, “3-4” for “4-5”

[7] = test system: Puccinia recondita f. sp. tritici; test: Fungicidal activity against Puccinia recondita f. sp. tritici / wheat / leaf disc preventative (brown rust); assay type: in vivo; details: foliar, wheat leaf segments cv. Kanzler, inoculated 1 day after application, assessed 7-9 days after application, vs untreated, read-out: disease control
Description: Fungicidal Activity Against Puccinia recondita f. sp. tritici/Wheat/Leaf Disc Preventative (Brown Rust) Wheat leaf segments cv. Kanzler were placed on agar in multiwell plates (24-well format) and sprayed with the formulated test compound diluted in water. The leaf disks were inoculated with a spore suspension of the fungus 1 day after application. The inoculated leaf segments were incubated at 19° C. and 75% rh under a light regime of 12 h light/12 h darkness in a climate cabinet and the activity of a compound was assessed as percent disease control compared to untreated when an appropriate level of disease damage appears in untreated check leaf segments (7-9 days after application).

[8] = test system: Phaeosphaeria nodorum (Septoria nodorum); test: Fungicidal activity against Phaeosphaeria nodorum (Septoria nodorum) / wheat / leaf disc preventative (glume blotch); assay type: in vivo; details: Parastagonospora nodorum, foliar, wheat leaf segments cv. Kanzler, inoculated 2 days after application, assessed 5-7 days after application, vs untreated, read-out: disease control
Description: Fungicidal Activity Against Phaeosphaeria nodorum (Septoria nodorum)/Wheat/Leaf Disc Preventative (Glume Blotch) Wheat leaf segments cv. Kanzler were placed on agar in a multiwell plate (24-well format) and sprayed with the formulated test compound diluted in water. The leaf disks were inoculated with a spore suspension of the fungus 2 days after application. The inoculated test leaf disks were incubated at 20° C. and 75% rh under a light regime of 12 h light/12 h darkness in a climate cabinet and the activity of a compound was assessed as percent disease control compared to untreated when an appropriate level of disease damage appears in untreated check leaf disks (5-7 days after application).

[9] = test system: Mycosphaerella arachidis (Cercospora arachidicola); test: Fungicidal activity against Mycosphaerella arachidis (Cercospora arachidicola) / liquid culture (early leaf spot); assay type: cell-based; details: liquid culture (PDB), inhibition of growth determined photometrically 4-5 days after application, read-out: disease control
Description: as §1, with “Mycosphaerella arachidis (Cercospora arachidicola)/Liquid” for “Gaeumannomyces graminis/Liquid”, “(Early Leaf Spot) Conidia” for “(Take-all of Cereals) Mycelial fragments”, “was” for “is”

[10] = test system: Monographella nivalis (Microdochium nivale); test: Fungicidal activity against Monographella nivalis (Microdochium nivale) / liquid culture (foot rot cereals); assay type: cell-based; details: liquid culture (PDB), inhibition of growth determined photometrically 4-5 days after application, read-out: disease control
Description: as §1, with “Monographella nivalis (Microdochium nivale)/Liquid” for “Gaeumannomyces graminis/Liquid”, “(Foot Rot” for “(Take-all of”, “Conidia” for “Mycelial fragments”, “was” for “is”

Compound | disease control [1] | inhibition of growth at 200 ppm [2] | pest or weed control at 200 ppm [3] | inhibition of growth at 200 ppm [4] | inhibition of growth at 200 ppm [5] | inhibition of growth at 200 ppm [6] | pest or weed control at 200 ppm [7] | pest or weed control at 200 ppm [8] | inhibition of growth at 200 ppm [9] | inhibition of growth at 200 ppm [10]
c1ccc(Cc2cccc(-c3ncc4ccsc4n3)n2)cc1 [Compound T3.1.31, 2-(6-benzyl-pyridin-2-yl)-thieno[2,3-d]pyrimidine] | at least 80% |  |  |  |  |  |  |  |  | 
Cc1cccc(-c2nc(-c3cccc(C)n3)nc3sccc23)c1 [Compound T15.12] |  | ≥ 80% | ≥ 80% | ≥ 80% | ≥ 80% | ≥ 80% | ≥ 80% | ≥ 80% | ≥ 80% | ≥ 80%
Cc1cccc(-c2nc(-c3ccccc3Cl)c3ccsc3n2)n1 [Compound T15.14] |  | ≥ 80% | ≥ 80% | ≥ 80% | ≥ 80% | ≥ 80% |  | ≥ 80% | ≥ 80% | 
c1ccc(Cc2cccc(-c3ncc4c5c(sc4n3)CCC5)n2)cc1 [Compound T15.2] |  | ≥ 80% |  |  |  |  |  |  | ≥ 80% | 
COc1nc(-c2cccc(-c3cc(C)ccc3C)n2)nc2sccc12 [Compound T15.8] |  | ≥ 80% | ≥ 80% | ≥ 80% |  |  |  |  | ≥ 80% | 
Cc1cccc(-c2nc(-c3ccccc3C)c3ccsc3n2)n1 [Compound T15.13] |  | ≥ 80% |  | ≥ 80% | ≥ 80% | ≥ 80% |  | ≥ 80% | ≥ 80% | 
Cc1cc(F)ccc1-c1cccc(-c2nc(O)c3ccsc3n2)n1 [Compound T15.5] |  | ≥ 80% |  |  | ≥ 80% |  |  |  |  | 
Cc1cccc(-c2nc(-c3ccccc3)c3ncccc3n2)n1 [Compound T15.10] |  | ≥ 80% | ≥ 80% | ≥ 80% | ≥ 80% | ≥ 80% | ≥ 80% | ≥ 80% | ≥ 80% | 
Cc1sc2nc(-c3cccc(Cc4ccccc4)n3)ncc2c1C [Compound T15.4] |  | ≥ 80% | ≥ 80% |  | ≥ 80% |  |  |  | ≥ 80% | ≥ 80%
COc1cccc(-c2nc(-c3cccc(C)n3)nc3sccc23)c1 [Compound T15.11] |  | ≥ 80% | ≥ 80% | ≥ 80% | ≥ 80% | ≥ 80% | ≥ 80% | ≥ 80% | ≥ 80% | ≥ 80%
Cc1cccc(-c2nc(-c3ccc(Cl)cc3)c3ccsc3n2)n1 [Compound T15.15] |  | ≥ 80% | ≥ 80% | ≥ 80% | ≥ 80% | ≥ 80% | ≥ 80% | ≥ 80% | ≥ 80% | ≥ 80%
COc1nc(-c2cccc(Cc3ccccc3)n2)nc2sccc12 [Compound T3.1.35, 2-(6-benzyl-pyridin-2-yl)-4-methoxy-thieno[2,3-d]pyrimidine] |  | ≥ 80% |  | ≥ 80% |  | ≥ 80% |  | ≥ 80% | ≥ 80% | ≥ 80%
Cc1ccc(C)c(-c2cccc(-c3nc(O)c4ccsc4n3)n2)c1 [Compound T15.7] |  | ≥ 80% |  |  |  |  |  |  |  | ≥ 80%
Cc1ccc(-c2ncc3cccnc3n2)nc1-c1ccccc1 [Compound T10.1.6, 2-(5-methyl-6-phenyl-pyridin-2-yl)-pyrido[2,3-d]pyrimidine] |  | ≥ 80% | ≥ 80% | ≥ 80% | ≥ 80% | ≥ 80% | ≥ 80% | ≥ 80% | ≥ 80% | ≥ 80%
CCOc1nc(-c2cccc(Cc3ccccc3)n2)nc2sccc12 [Compound T15.1] |  | ≥ 80% |  | ≥ 80% |  | ≥ 80% | ≥ 80% |  | ≥ 80% | ≥ 80%
COc1nc(-c2cccc(C#CC3CC3)n2)nc2sccc12 [Compound T15.9] |  | ≥ 80% |  |  |  |  |  |  | ≥ 80% | ≥ 80%
Clc1nc(-c2cccc(Cc3ccccc3)n2)nc2sccc12 [Compound T3.1.33, 2-(6-benzyl-pyridin-2-yl)-4-chloro-thieno[2,3-d]pyrimidine] |  | ≥ 80% |  | ≥ 80% |  | ≥ 80% | ≥ 80% | ≥ 80% | ≥ 80% | ≥ 80%
c1ccc(Cc2cccc(-c3ncc4ccsc4n3)n2)cc1 [Compound T15.16] |  | ≥ 80% | ≥ 80% | ≥ 80% | ≥ 80% | ≥ 80% | ≥ 80% | ≥ 80% | ≥ 80% | ≥ 80%
